In the Kinase Knowledgebase extract (Sharma et al. 2016):

What follows are compounds tested against ROCK2 (human) (UniProt O75116) (assay: Inhibition of ROCK2 Kinase Activity).
Chain of ROCK2 (human) (O75116 whole entry, looked up): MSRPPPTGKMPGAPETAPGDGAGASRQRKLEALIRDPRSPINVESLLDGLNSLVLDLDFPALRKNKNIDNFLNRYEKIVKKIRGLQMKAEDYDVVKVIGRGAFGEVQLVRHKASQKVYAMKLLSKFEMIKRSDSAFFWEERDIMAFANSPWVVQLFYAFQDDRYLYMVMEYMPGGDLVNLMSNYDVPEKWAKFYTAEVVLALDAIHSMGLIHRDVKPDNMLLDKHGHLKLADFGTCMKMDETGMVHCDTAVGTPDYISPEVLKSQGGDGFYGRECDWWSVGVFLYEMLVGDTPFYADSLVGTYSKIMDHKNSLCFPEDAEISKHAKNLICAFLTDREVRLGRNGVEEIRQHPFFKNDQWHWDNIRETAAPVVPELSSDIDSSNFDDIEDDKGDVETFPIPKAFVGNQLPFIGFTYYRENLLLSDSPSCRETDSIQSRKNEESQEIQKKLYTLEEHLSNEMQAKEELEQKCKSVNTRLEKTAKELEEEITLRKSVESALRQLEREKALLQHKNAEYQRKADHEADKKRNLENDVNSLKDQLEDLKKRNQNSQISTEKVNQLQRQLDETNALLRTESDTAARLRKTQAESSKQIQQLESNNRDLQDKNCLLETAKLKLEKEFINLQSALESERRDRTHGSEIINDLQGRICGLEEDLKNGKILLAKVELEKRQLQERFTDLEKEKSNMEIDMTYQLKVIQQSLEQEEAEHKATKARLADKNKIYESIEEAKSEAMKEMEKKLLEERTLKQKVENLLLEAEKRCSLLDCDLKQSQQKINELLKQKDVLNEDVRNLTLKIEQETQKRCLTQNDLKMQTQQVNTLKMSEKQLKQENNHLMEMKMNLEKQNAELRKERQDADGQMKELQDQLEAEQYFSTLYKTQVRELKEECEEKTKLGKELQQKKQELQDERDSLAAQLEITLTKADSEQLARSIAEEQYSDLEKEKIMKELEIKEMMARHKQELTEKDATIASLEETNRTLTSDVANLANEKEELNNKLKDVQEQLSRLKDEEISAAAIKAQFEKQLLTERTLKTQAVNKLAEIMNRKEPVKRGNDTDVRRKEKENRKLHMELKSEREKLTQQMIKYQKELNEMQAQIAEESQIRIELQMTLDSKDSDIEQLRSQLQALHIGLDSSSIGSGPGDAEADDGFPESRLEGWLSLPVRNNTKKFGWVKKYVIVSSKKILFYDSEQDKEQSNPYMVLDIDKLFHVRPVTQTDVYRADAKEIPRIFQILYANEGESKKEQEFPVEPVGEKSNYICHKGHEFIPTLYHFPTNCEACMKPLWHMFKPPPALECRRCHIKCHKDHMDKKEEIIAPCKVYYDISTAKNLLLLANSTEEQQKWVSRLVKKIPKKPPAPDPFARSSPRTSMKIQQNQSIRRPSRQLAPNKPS

| Structure (SMILES) | IC50 [nM] | Ki [nM] |
| --- | --- | --- |
| Cc1c[nH]c2nccc(Nc3ccc(Nc4cc(Cl)nc(N)n4)cc3F)c12 | 3 | – |
| NCC1(c2ccc(OC(F)(F)F)cc2)CCN(c2ncnc3[nH]ccc23)CC1 | < 30 | – |
| Nc1nc(Nc2ccc(Sc3ccncc3)c(F)c2)cc(-c2ccc3ncccc3c2)n1 | 7 | – |
| c1c[nH]c(CN2CCC[C@@H](Nc3ccc4[nH]ncc4c3)C2)n1 | – | 1.3 |
| Nc1nc(Nc2cc(F)c(Sc3ccncc3)c(F)c2)cc(N2C[C@H]3CCCN[C@H]3C2)n1 | 5 | – |
| C[C@H]1CN(C(=O)CN)CCCN1S(=O)(=O)c1cccc2cncc(F)c12 | 32.1 | – |
| O=C(C(O)c1ccc(Br)cc1)N1CCN(c2ccc3[nH]ncc3c2)CC1 (stereo not drawn) | 90 | – |
| CNCC(=O)N1CCCN(S(=O)(=O)c2cccc3cncc(F)c23)[C@@H](C)C1 | 29 | – |
| CSCc1ccc(CN2CCCC(Nc3ccc4[nH]ncc4c3)C2)cc1 (stereo not drawn) | 1310 | – |
| CN1CCCN(c2nc(-c3ccncc3)cnc2N)CC1 | 3100 | – |
| Cc1c[nH]c2nccc(Nc3ccc(Nc4cc(C(F)(F)F)nc(N)n4)cc3F)c12 | 4 | – |
| Nc1nccc2cc(CNCCc3ccccc3)ccc12 | 3160 | – |
| C[C@@H](N)c1ccc(C(=O)Nc2ccncc2)cc1 | 390 | – |
| CN1CCCN(c2nc(-c3ccc4cn[nH]c4c3)cnc2N)CC1 | > 100 | – |

Further lines, results first:

| IC50 [nM] | Ki [nM] | Structure (SMILES) |
| --- | --- | --- |
| 99 | – | COCCN(C(=O)c1cccc(CNC(=O)c2ccc(OC)c(OC)c2)c1)c1ccc2c(c1)CNCC2 |
| 12 | – | C[C@@H](NC(=O)Nc1nc(-c2ccncc2)cs1)c1ccccc1 |
| < 1 | – | COc1cccc(CNC(=O)c2c[nH]c3cc(-c4cn[nH]c4)ccc23)c1 |

These compounds were tested against PIK3CG (human) (UniProt P48736) (assay: Assessment of PIK3CG Kinase Activity).
Chain of PIK3CG (human) (P48736 whole entry, looked up): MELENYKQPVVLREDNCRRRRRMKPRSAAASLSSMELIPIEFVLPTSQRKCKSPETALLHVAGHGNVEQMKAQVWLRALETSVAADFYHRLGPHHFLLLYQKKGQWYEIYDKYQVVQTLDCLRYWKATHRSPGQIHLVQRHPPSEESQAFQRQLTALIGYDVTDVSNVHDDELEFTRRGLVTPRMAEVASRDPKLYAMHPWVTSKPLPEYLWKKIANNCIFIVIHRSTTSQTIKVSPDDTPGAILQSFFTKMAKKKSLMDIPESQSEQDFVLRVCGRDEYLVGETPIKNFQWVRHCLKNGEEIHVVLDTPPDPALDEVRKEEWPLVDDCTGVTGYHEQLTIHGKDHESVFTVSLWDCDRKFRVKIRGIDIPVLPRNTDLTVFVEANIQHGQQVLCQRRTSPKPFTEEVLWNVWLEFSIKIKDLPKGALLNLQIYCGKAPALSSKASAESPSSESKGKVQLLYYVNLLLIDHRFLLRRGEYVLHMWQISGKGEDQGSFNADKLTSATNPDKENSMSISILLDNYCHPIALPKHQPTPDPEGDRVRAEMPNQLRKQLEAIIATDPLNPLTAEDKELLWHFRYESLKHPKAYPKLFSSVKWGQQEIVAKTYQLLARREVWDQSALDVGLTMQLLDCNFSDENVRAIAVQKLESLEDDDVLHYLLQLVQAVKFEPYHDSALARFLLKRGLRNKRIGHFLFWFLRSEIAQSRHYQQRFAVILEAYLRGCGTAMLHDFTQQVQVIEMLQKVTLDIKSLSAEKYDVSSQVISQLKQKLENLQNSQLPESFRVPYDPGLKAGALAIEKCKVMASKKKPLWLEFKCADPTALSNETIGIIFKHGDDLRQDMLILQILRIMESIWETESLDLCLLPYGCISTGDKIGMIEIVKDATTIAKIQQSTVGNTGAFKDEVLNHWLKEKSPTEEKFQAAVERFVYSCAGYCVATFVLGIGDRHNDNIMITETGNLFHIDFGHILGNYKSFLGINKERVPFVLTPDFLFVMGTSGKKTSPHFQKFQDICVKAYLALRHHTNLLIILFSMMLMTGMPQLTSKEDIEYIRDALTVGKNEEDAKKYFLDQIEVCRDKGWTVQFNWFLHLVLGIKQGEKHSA

| Structure (SMILES) | IC50 [nM] | Ki [nM] | Kd [nM] |
| --- | --- | --- | --- |
| CC(=O)Nc1nc(C)c(-c2ccc(S(C)(=O)=O)cn2)s1 | 1840 | – | – |
| O=C(Nc1ccc(-c2nc(N3CCOCC3)nc(N3CCOCC3)n2)cc1)Nc1ccc(F)cc1F | 528 | – | – |
| COc1ccc(C2=NNC(=O)C2=NNc2ccccc2)cn1 | – | 540 | – |
| COc1cc(C#Cc2cc(NC(=O)NCCOCC3CC3)nn2C)cnc1OC | – | < 100 | – |
| O=c1n(Cc2ccccc2)c2nc(-c3cccc(O)c3)nc(C3=CCOCC3)c2n1Cc1ccccc1 | 1610 | – | – |
| O=C(NCCO)Oc1ccc(-c2nc(N3CCOCC3)c3ccn(CC(F)(F)F)c3n2)cc1 | 1720 | – | – |
| O=C(Nc1ccc(-c2nc(N3CCOCC3)nc(N3CCOCC3)n2)cc1)Nc1cccs1 | 23 | – | – |
| Oc1cncc(-c2nc(C3=CCOCC3)c3ncn(C4CCN(Cc5cncc(Br)c5)CC4)c3n2)c1 | 6740 | – | – |
| Cc1nc(Nc2cc(C(=O)O)n(C)c2)nc2c1ccc(=O)n2C1CCCC(C)C1 (stereo not drawn) | 180 | – | – |
| CCNC(=O)Oc1nc2cc(-c3nc(N4CCOCC4)c4ccn(CC(F)(F)F)c4n3)ccc2[nH]1 | 210 | – | – |
| CNS(=O)(=O)c1cncc(-c2ccc3nc(NC(C)=O)nn3c2)c1 | 7.94 | – | – |
| O=C(Nc1ccc(-c2nc(N3CCOCC3)nc(N3CCOCC3)n2)cc1)NC1CCNCC1 | 7470 | – | – |

Continued, values first:

| IC50 [nM] | Ki [nM] | Kd [nM] | Structure (SMILES) |
| --- | --- | --- | --- |
| 2210 | – | – | COc1ccc2sc(C(=O)Nc3nnn[nH]3)c(Sc3ccoc3C)c2c1 |
| 160 | – | – | CCOC(=O)c1cc(Nc2nc(C)c3cc(F)c(=O)n(C4CCCC4)c3n2)cn1CCc1ccccc1 |
| 170 | – | – | COc1cc2c(Sc3cccc(Cl)c3)c(C(=O)Nc3nnn[nH]3)sc2cc1C |
| 148 | – | – | Cc1nc(Nc2cc(C(=O)O)n(CCc3ccccc3)c2)nc2c1ccc(=O)n2C |
| – | – | 1500 | COC(=O)Nc1nc2ccc(C(=O)c3cccs3)cc2[nH]1 |
| – | 1000 | – | COc1ccc(C2=NNC(=O)C2=NNc2cccnc2)cc1 |
| 3450 | – | – | COc1ccc2sc(C(=O)Nc3nnn[nH]3)c(Sc3cccc(Cl)c3Cl)c2c1 |
| 15 | – | – | Cc1nc(Nc2cc(C(=O)O)n(CCc3ccccc3)c2)nc2c1cc(F)c(=O)n2C1CCCC1 |
| 63 | – | – | CCOC(=O)c1cc(Nc2nc(C)c3ccc(=O)n(C)c3n2)cn1CCc1ccccc1 |
| – | < 100 | – | CC(=O)Nc1nc(C)c(-c2ccc(S(=O)(=O)N[C@H](CO)c3ccccc3)o2)s1 |
| 215 | – | – | COc1cc2sc(C(=O)Nc3nnn[nH]3)c(SCCc3ccccc3)c2cc1C |
| 522 | – | – | COc1cc2sc(C(=O)Nc3nnn[nH]3)c(SCCc3ccccc3)c2cc1OC |
| 2850 | – | – | CCOc1ccc2sc(C(=O)Nc3nnn[nH]3)c(SCCc3ccccc3)c2c1 |

What follows are compounds tested against PIK3CA (human) (UniProt P42336) (assay: Assessment of PIK3CA Kinase Activity).
Chain of PIK3CA (human) (P42336 whole entry, looked up): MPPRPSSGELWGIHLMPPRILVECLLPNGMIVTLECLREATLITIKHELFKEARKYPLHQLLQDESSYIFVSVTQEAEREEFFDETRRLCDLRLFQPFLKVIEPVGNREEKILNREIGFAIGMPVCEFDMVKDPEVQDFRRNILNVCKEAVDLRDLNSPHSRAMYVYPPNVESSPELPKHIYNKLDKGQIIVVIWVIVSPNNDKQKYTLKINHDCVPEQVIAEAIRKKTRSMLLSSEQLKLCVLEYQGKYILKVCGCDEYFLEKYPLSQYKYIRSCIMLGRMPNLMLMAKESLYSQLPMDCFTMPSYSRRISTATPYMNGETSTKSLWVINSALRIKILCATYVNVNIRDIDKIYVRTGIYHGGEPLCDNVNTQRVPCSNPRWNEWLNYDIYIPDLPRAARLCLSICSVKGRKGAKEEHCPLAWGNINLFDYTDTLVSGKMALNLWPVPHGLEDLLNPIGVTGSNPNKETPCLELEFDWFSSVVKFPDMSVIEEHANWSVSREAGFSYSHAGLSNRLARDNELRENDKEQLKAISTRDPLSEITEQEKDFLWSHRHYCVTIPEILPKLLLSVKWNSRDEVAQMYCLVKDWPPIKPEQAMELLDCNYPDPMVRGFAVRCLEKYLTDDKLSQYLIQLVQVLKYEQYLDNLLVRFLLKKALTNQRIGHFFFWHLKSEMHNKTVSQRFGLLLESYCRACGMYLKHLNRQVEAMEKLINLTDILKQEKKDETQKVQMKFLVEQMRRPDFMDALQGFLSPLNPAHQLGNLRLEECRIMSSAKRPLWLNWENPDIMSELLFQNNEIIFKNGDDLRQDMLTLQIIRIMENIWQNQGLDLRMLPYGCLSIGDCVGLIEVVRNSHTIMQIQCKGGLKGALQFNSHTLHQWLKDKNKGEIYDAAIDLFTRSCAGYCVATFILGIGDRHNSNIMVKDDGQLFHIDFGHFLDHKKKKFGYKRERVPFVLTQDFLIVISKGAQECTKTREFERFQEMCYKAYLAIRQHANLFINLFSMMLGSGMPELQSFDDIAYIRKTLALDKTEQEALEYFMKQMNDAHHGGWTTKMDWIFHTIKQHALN

| IC50 [nM] | Structure (SMILES) |
| --- | --- |
| 60.5 | O=C(Nc1ccc(-c2nc(N3CCOCC3)nc(N3CCOCC3)n2)cc1)Nc1ccc(F)cc1F |
| 2420 | O=c1n(Cc2ccccc2)c2nc(-c3cccc(O)c3)nc(C3=CCOCC3)c2n1Cc1ccccc1 |
| 570 | O=C(NCCO)Oc1ccc(-c2nc(N3CCOCC3)c3ccn(CC(F)(F)F)c3n2)cc1 |
| 2 | O=C(Nc1ccc(-c2nc(N3CCOCC3)nc(N3CCOCC3)n2)cc1)Nc1cccs1 |
| 1340 | Oc1cncc(-c2nc(C3=CCOCC3)c3ncn(C4CCN(Cc5cncc(Br)c5)CC4)c3n2)c1 |
| 1840 | CCNC(=O)Oc1nc2cc(-c3nc(N4CCOCC4)c4ccn(CC(F)(F)F)c4n3)ccc2[nH]1 |
| 1520 | O=C(Nc1ccc(-c2nc(N3CCOCC3)nc(N3CCOCC3)n2)cc1)NC1CCNCC1 |

These compounds were tested against PIK3CD (Human) (UniProt O00329) (assay: Inhibition of PIK3CD Kinase Activity).
Chain of PIK3CD (Human) (O00329 whole entry, looked up): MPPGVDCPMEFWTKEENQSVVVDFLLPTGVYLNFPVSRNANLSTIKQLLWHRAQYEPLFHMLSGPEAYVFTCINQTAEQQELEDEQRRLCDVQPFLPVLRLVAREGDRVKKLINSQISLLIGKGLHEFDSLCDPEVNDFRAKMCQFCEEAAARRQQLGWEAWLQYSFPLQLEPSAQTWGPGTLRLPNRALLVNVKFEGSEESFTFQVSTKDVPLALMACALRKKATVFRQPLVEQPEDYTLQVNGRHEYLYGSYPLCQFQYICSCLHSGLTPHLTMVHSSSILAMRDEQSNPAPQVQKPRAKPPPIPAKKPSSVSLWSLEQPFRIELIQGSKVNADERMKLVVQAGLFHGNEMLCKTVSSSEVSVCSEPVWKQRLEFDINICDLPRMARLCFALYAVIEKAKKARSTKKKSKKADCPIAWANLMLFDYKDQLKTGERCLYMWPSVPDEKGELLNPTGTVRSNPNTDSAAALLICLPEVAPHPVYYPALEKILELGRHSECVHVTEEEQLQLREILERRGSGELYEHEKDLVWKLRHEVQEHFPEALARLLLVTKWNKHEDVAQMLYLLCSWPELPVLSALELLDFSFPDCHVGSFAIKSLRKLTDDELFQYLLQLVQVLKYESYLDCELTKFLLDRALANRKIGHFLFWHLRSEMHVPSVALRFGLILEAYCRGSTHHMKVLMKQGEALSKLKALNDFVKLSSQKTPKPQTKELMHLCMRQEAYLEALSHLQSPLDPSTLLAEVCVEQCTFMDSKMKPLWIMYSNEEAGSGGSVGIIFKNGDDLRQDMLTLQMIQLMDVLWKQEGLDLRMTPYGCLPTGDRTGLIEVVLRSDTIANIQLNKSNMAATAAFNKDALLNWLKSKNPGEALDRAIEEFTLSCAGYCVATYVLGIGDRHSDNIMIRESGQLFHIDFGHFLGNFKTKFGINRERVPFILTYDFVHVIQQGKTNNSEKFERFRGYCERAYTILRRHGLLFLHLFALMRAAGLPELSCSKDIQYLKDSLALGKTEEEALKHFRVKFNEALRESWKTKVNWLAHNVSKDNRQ

| IC50 [nM] | Structure (SMILES) |
| --- | --- |
| 23 | C[C@H](Nc1ncnc2[nH]cnc12)c1cc2ccc(F)cc2nc1-c1cccnc1 |
| 20000 | O=C1NC(=O)/C(=C/c2ccc3cc(F)oc3c2)S1 |
| 20000 | CN1C(=O)COc2ccc(/C=C3\SC(=O)NC3=O)cc21 |
| 35 | Nc1ncnc2c1c(I)nn2Cc1cc2c(Cl)cccc2nc1-c1ccccc1Cl |
